Results taken from PMC7795340, “First Synthesis of Racemic Trans Propargylamino-Donepezil, a Pleiotrope Agent Able to Both Inhibit AChE and MAO-B, with Potential Interest against Alzheimer’s Disease” (Molecules, 2020).
Values joined by “and” are separate entries in the source; they are usually repeats but may differ in a detail not shown here. Identical values can stand only once. Like-named read-outs stand apart in the source and are kept apart here.

Legend:
[1] = molecular target: (h)AChE (AChE from human erythrocytes) (Homo sapiens, UniProt P22303); experiment: biochemical; conditions: for inhibition at 1 µM: read-out: (h)AChE % Inhibition at 10^−6 M
Chain of (h)AChE (AChE from human erythrocytes) (P22303 other isoform, or with tags, fused parts or gaps): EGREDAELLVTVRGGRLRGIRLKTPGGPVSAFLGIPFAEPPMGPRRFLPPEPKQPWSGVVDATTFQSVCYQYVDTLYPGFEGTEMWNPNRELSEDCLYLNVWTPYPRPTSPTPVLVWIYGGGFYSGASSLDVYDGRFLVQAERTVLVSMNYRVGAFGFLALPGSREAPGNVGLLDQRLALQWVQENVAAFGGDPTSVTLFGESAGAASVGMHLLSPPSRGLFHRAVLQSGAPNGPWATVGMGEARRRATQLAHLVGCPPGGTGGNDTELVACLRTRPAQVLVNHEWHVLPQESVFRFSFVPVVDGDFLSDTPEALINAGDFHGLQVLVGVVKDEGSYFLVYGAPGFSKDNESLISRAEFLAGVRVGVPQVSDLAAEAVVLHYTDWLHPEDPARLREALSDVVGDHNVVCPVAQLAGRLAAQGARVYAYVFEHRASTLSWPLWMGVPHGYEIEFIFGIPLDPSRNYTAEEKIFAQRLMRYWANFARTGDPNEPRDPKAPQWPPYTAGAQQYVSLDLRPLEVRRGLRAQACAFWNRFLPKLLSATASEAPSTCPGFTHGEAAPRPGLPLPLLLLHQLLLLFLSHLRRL
Experimental: DPZ was used as a reference.
Inhibitory capacity of compounds on AChE biological activity was evaluated using the spectrometric method of Ellman. Acetyl- or butyrylthiocholine iodide and 5,5-dithiobis-(2-nitrobenzoic) acid (DTNB) were purchased from Sigma Aldrich. Lyophilized BuChE from equine serum (Sigma Aldrich) was dissolved in 0.2 M phosphate buffer pH 7.4 such as to have enzyme solutions stock with 2.5 units/mL enzyme activity. AChE from human erythrocytes (buffered aqueous solution, ≥500 units/mg protein (BCA), Sigma Aldrich) was diluted in 20 mM HEPES buffer pH 8, 0.1% Triton X-100 such as to have enzyme solution with 0.25 unit/mL enzyme activity. In the procedure, 100 μL of 0.3 mM DTNB dissolved in phosphate buffer pH 7.4 was added to the 96 wells plate followed by 50 μL of test compound solution and 50 μL of enzyme (0.05 U final). After 5 min of preincubation at 25 °C, the reaction was then initiated by the injection of 50 μL of 10 mM acetyl- or butyrylthiocholine iodide solution. […] Assays were performed in simplicate during three independent tests, with a blank containing all components except acetyl- or butyrylthiocholine, in order to account for non-enzymatic reaction. The reaction slopes were compared, and the percent inhibition due to the presence of test compounds was calculated by the following expression: 100 − (vi/v0 × 100) where vi is the rate calculated in the presence of inhibitor and v0 is the enzyme activity.

[2] = molecular target: (eq)BuChE (BuChE from equine serum) (Equus caballus, UniProt P81908); experiment: (eq)BuChE inhibition, Ellman test; type: biochemical; conditions: for inhibition at 1 µM: read-out: (eq)BuChE % Inhibition at 10^−6 M
Chain of (eq)BuChE (BuChE from equine serum) (P81908 whole entry): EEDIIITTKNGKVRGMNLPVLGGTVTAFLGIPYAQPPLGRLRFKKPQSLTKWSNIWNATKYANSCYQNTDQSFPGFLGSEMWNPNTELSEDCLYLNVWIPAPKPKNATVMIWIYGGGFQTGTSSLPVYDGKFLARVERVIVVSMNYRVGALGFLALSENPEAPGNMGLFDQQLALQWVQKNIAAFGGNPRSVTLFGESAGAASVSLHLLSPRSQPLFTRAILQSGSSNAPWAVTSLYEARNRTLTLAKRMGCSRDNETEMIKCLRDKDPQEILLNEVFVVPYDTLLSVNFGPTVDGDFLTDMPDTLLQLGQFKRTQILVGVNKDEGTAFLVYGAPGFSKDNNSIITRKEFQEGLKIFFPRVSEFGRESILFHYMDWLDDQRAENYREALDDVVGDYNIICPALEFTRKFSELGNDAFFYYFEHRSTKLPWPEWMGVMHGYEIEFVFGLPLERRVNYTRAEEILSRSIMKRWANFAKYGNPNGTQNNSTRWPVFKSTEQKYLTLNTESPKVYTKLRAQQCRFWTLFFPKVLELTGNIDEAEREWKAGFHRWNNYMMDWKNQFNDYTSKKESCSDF
Experimental: . DPZ was used as a reference.
Inhibitory capacity of compounds on AChE biological activity was evaluated using the spectrometric method of Ellman. Acetyl- or butyrylthiocholine iodide and 5,5-dithiobis-(2-nitrobenzoic) acid (DTNB) were purchased from Sigma Aldrich. Lyophilized BuChE from equine serum (Sigma Aldrich) was dissolved in 0.2 M phosphate buffer pH 7.4 such as to have enzyme solutions stock with 2.5 units/mL enzyme activity. AChE from human erythrocytes (buffered aqueous solution, ≥500 units/mg protein (BCA), Sigma Aldrich) was diluted in 20 mM HEPES buffer pH 8, 0.1% Triton X-100 such as to have enzyme solution with 0.25 unit/mL enzyme activity. In the procedure, 100 μL of 0.3 mM DTNB dissolved in phosphate buffer pH 7.4 was added to the 96 wells plate followed by 50 μL of test compound solution and 50 μL of enzyme (0.05 U final). After 5 min of preincubation at 25 °C, the reaction was then initiated by the injection of 50 μL of 10 mM acetyl- or butyrylthiocholine iodide solution. The hydrolysis of acetyl- or butyrylthiocholine was monitored by the formation of yellow 5-thio-2-nitrobenzoate anion as the result of the reaction of DTNB with thiocholine, released by the enzymatic hydrolysis of acetyl- or butyrylthiocholine, at a wavelength of 412 nm using a 96-well microplate plate reader (TECAN Infinite M200, Lyon, France). […]. The rate of absorbance increase at 412 nm was followed every minute for 10 min. Assays were performed in simplicate during three independent tests, with a blank containing all components except acetyl- or butyrylthiocholine, in order to account for non-enzymatic reaction. The reaction slopes were compared, and the percent inhibition due to the presence of test compounds was calculated by the following expression: 100 − (vi/v0 × 100) where vi is the rate calculated in the presence of inhibitor and v0 is the enzyme activity.
First screening of AChE and BuChE activity was carried out at a 10^−6 or 10^−5 M concentration of compounds under study. […]

human recombinant MAO-B = molecular target: T1, human recombinant MAO-B (Homo sapiens, UniProt P27338); experiment: (h)MAO-B inhibition, kynuramine fluorescence assay; type: biochemical; conditions: kynuramine 50 µM; for inhibition at 10 µM: 10^−5 M; for IC50: (h)MAO-B IC50 (µM) (n = 3), mean ± SEM, n = 3
T1 construct: purchased Sigma Aldrich; host or cells: baculovirus infected insect cells (microsomes)
T1 sequence (P27338 1-520): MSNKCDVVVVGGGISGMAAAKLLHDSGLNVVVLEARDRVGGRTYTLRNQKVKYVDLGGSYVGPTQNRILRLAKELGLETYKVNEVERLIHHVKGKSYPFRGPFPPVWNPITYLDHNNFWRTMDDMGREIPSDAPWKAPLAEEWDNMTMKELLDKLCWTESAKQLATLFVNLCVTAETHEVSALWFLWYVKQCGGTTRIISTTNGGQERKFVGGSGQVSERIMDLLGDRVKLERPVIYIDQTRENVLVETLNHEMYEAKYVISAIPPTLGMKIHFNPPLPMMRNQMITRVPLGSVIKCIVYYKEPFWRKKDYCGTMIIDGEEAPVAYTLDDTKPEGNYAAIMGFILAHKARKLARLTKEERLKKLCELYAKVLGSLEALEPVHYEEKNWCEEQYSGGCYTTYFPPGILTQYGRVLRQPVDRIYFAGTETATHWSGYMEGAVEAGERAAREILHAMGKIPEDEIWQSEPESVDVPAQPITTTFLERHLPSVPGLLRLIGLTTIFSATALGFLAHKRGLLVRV
Experimental: (§1) Inhibition of human recombinant monoamine oxidases A (250 U/mg) and B (59 U/mg; microsomes from baculovirus infected insect cells; Sigma Aldrich) was determined as already described, measuring the fluorescence of 4-hydroxyquinoline (exc. 310 nm; em. 400 nm) produced by MAOs in the oxidative deamination of substrate kynuramine. […] Assays were performed in triplicate during three independent tests, in 96-well black polystyrene plates (Greiner Bio-One, Kremsmünster, Austria) using an Infinite M1000 Pro plate reader (Tecan, Cernusco s.N., Italy).

human recombinant MAO-A = molecular target: T2, human recombinant MAO-A (Homo sapiens, UniProt P21397); experiment: (h)MAO-A inhibition, kynuramine fluorescence assay; type: biochemical; conditions: 10^−5 M; kynuramine 50 µM
T2 construct: purchased Sigma Aldrich; host or cells: baculovirus infected insect cells (microsomes)
T2 sequence (P21397 1-527): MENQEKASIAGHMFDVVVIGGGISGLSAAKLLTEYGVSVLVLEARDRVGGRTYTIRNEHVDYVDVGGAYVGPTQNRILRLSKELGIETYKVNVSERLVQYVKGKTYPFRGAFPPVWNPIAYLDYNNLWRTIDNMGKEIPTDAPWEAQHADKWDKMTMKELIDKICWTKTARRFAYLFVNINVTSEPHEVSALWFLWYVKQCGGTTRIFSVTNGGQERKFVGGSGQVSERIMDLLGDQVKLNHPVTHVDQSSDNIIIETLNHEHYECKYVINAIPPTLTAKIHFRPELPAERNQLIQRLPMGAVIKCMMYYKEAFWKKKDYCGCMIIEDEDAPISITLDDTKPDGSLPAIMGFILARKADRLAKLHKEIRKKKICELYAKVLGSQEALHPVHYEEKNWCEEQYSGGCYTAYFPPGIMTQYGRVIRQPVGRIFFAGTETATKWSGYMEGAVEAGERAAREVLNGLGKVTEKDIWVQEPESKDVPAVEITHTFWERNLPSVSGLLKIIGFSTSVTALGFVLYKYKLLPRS
Experimental: as §1

SMILES | inhibition at 1 µM [1] [%] | inhibition at 1 µM [2] [%] | inhibition at 10 µM (human recombinant MAO-B) [%] | IC50 (human recombinant MAO-B) | inhibition at 10 µM (human recombinant MAO-A) [%] | IC50 ([1]; (h)AChE IC50 (µM) (n = 3), mean ± SEM, n = 3) | relative selectivity: BuChE inhibited at a concentration fold greater than AChE ([1]; BuChE IC50 vs (h)AChE IC50) [fold] | IC50 ([1]; value in nM, read-out: (h)AChE IC50) [µM] | IC50 ([2]; (eq)BuChE IC50 (µM) (n = 3), mean ± SEM, n = 3)
COc1cc2c(cc1OC)C(NC(C)=O)C(CC1CCN(Cc3ccccc3)CC1)C2=O (centres unmarked) [Compound 16] | 4 | 39 |  |  |  |  |  |  | 
C#CCNC1CC(=O)c2cc(OC)c(OC)cc21 (centres unmarked) [Compound 5, 5,6-Dimethoxy-3-(prop-2-ynylamino)indan-1-one] |  |  | 45 | 13.4 ± 3.4 µM | < 10 |  |  |  | 
C#CCN[C@@H]1c2cc(OC)c(OC)cc2C(=O)[C@H]1CC1CCN(Cc2ccccc2)CC1 (relative stereo) [Trans-PADPZ (19), Trans 2-[(1-Benzyl-4-piperidyl)methyl]-5,6-dimethoxy-3-(prop-2-ynylamino)indan-1-one] | 71 | 74 | 52 | 6.4 µM and 6.43 µM | 13 | 0.4 µM and 0.442 µM | 10 | 0.44 | 4.23 ± 0.375
